In the supplement of paper PMC10307832:

What was measured:
Assay in all cases: relative viability (nuclei count vs DMSO), 5 days (fraction); higher = more cells survive
[1] = compound: O=C(c1cc(Cc2n[nH]c(=O)c3ccccc23)ccc1F)N1CCN(C(=O)C2CC2)CC1 [Olaparib] + CC1(C)CCC(c2ccc(Cl)cc2)=C(CN2CCN(c3ccc(C(=O)NS(=O)(=O)c4ccc(N[C@H](CCN5CCOCC5)CSc5ccccc5)c(S(=O)(=O)C(F)(F)F)c4)cc3)CC2)C1 [Navitoclax] (partner 0.5 µM)
Summary of the method: (§1)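 Lung cancer cell lines were seeded in 1536-well plates and dosed by pin tool the next day, with either a single drug or a fixed anchor-drug dose combined with five library-drug doses (not always all listed) spaced in √10 steps. Five days later, one step fixed the cells and stained their nuclei (final 0.05% Triton X-100, 1% formaldehyde, 1 ug/ml Hoechst), and nuclei were counted on 4× images. Relative viability is the nuclei count in treated wells divided by the count in vehicle wells, and each value is the median of duplicate plates.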

[2] = compound: CC(C)C[C@H](NC(=O)[C@H](CCc1ccccc1)NC(=O)CN1CCOCC1)C(=O)N[C@@H](Cc1ccccc1)C(=O)N[C@@H](CC(C)C)C(=O)[C@@]1(C)CO1 [Carfilzomib] + CC1(C)CCC(c2ccc(Cl)cc2)=C(CN2CCN(c3ccc(C(=O)NS(=O)(=O)c4ccc(N[C@H](CCN5CCOCC5)CSc5ccccc5)c(S(=O)(=O)C(F)(F)F)c4)cc3)CC2)C1 [Navitoclax] (partner 0.5 µM)
Summary of the method: as §1

[3] = compound: CC(C)C[C@H](NC(=O)[C@H](CCc1ccccc1)NC(=O)CN1CCOCC1)C(=O)N[C@@H](Cc1ccccc1)C(=O)N[C@@H](CC(C)C)C(=O)[C@@]1(C)CO1 [Carfilzomib] + Nc1ncn([C@H]2C[C@H](O)[C@@H](CO)O2)c(=O)n1 [Decitabine] (partner 2 µM)
Summary of the method: as §1

[4] = compound: C[C@@H](Oc1cc(-c2cnn(C3CCNCC3)c2)cnc1N)c1c(Cl)ccc(F)c1Cl [Crizotinib] + CS(=O)(=O)CCNCc1ccc(-c2ccc3ncnc(Nc4ccc(OCc5cccc(F)c5)c(Cl)c4)c3c2)o1 [Lapatinib] (partner 2 µM)
Summary of the method: as §1

| Cell Line | relative viability ([1]; first compound 0.253 µM) | relative viability ([1]; first compound 2.53 µM) | relative viability ([1]; first compound 8 µM) | relative viability ([2]; first compound 0.001 µM) | relative viability ([2]; first compound 0.003162 µM) | relative viability ([2]; first compound 0.01 µM) | relative viability ([2]; first compound 0.03162 µM) | relative viability ([2]; first compound 0.1 µM) | relative viability ([3]; first compound 0.001 µM) | relative viability ([3]; first compound 0.003162 µM) | relative viability ([3]; first compound 0.01 µM) | relative viability ([3]; first compound 0.03162 µM) | relative viability ([3]; first compound 0.1 µM) | relative viability ([4]; first compound 0.01 µM) | relative viability ([4]; first compound 0.03162 µM) | relative viability ([4]; first compound 0.1 µM) | relative viability ([4]; first compound 0.3162 µM) | relative viability ([4]; first compound 1 µM) | relative viability ([1]; first compound 0.08 µM) |
| --- | --- | --- | --- | --- | --- | --- | --- | --- | --- | --- | --- | --- | --- | --- | --- | --- | --- | --- | --- |
| NCI-H441 | 0.406 | 0.706 | 0.582 | 0.534 | 0.571 | 0.208 | 0.144 | 0.145 | 0.23 | 0.258 | 0.211 | 0.122 | 0.14 |  |  |  |  |  |  |
| ABC-1 |  |  |  |  |  |  |  |  | 1.24 | 1.34 | 0.539 | 0.274 | 0.285 | 1.2 | 1.1 | 1.16 | 1.12 | 1.36 |  |
| NCI-H2170 | 0.533 | 0.53 | 0.448 | 0.698 | 0.688 | 0.617 | 0.409 | 0.197 | 0.451 | 0.474 | 0.448 | 0.477 | 0.22 | 0.274 | 0.283 | 0.261 | 0.243 | 0.241 | 0.551 |
| NCI-H1944 | 0.842 | 1.07 | 0.64 | 0.998 | 1.16 | 1.01 | 1.05 | 0.546 | 0.405 | 0.447 | 0.449 | 0.453 | 0.234 | 0.751 | 0.82 | 0.767 | 0.715 | 0.863 | 0.95 |
| PC-3 [JPC-3] | 0.729 | 0.743 | 0.76 | 0.74 | 0.84 | 0.761 | 0.705 | 0.138 | 0.832 | 0.879 | 0.89 | 0.64 | 0.301 | 0.408 | 0.448 | 0.446 | 0.422 | 0.459 | 0.784 |
| NCI-H1648 |  |  |  |  |  |  |  |  | 0.447 | 0.495 | 0.474 | 0.404 | 0.255 |  |  |  |  |  |  |
| NCI-H1975 | 0.957 | 1.14 | 1.02 | 1.05 | 1.23 | 0.416 | 0.213 | 0.144 | 0.378 | 0.451 | 0.365 | 0.132 | 0.147 | 0.719 | 1.01 | 0.971 | 0.798 | 0.869 | 1.28 |
| NCI-H650 |  |  |  |  |  |  |  |  | 0.342 | 0.314 | 0.316 | 0.31 | 0.139 | 0.833 | 0.788 | 0.909 | 0.803 | 0.891 |  |
| NCI-H1755 | 0.912 | 1.01 | 0.876 | 0.972 | 0.989 | 0.994 | 0.841 | 0.198 | 0.732 | 0.729 | 0.669 | 0.755 | 0.446 | 1 | 1.04 | 1.07 | 0.938 | 1.03 | 1.02 |
| NCI-H1666 | 0.828 | 0.796 | 0.853 | 1.07 | 0.963 | 1.05 | 0.929 | 0.263 | 0.707 | 0.782 | 0.751 | 0.704 | 0.403 | 0.618 | 0.678 | 0.587 | 0.657 | 0.682 | 1.17 |
| NCI-H1792 | 0.555 | 0.505 | 0.512 | 0.575 | 0.628 | 0.563 | 0.612 | 0.555 |  | 0.592 | 0.619 | 0.542 | 0.207 | 0.827 | 0.918 | 0.958 | 0.78 | 0.842 | 0.666 |
| CAL-12T | 1.19 | 1.41 | 1.08 |  | 0.996 | 1.22 | 0.822 | 0.104 |  |  |  |  |  | 0.664 | 0.771 | 0.658 |  | 0.608 | 1.35 |
| EPLC-272H | 1.1 | 1.16 | 0.995 | 1.07 | 1.15 | 0.839 | 0.09 | 0.0751 | 0.353 | 0.391 | 0.379 | 0.174 | 0.0719 | 0.861 | 0.996 | 0.945 | 0.9 | 1.11 | 1.28 |
| IA-LM | 0.784 | 0.707 | 0.502 | 0.851 | 0.815 | 0.879 | 0.0554 | 0.01 |  |  |  |  |  | 0.861 | 0.954 | 0.738 | 0.822 | 0.641 | 0.825 |
| PC-14 | 0.934 | 0.867 | 0.722 | 1 | 1.05 | 1.05 | 0.133 | 0.0977 | 0.198 | 0.273 | 0.23 | 0.0558 | 0.0667 | 0.297 | 0.339 | 0.312 | 0.304 | 0.304 | 1.04 |
| NCI-H1703 | 1.06 | 1.05 | 1.43 | 1.13 | 1.17 | 0.164 | 0.151 | 0.102 |  |  |  |  |  | 1.23 | 1.18 | 1.07 | 1.17 | 1.02 | 1.29 |
| NCI-H1437 | 1.01 | 0.952 | 0.761 | 1.08 | 1.12 | 1.12 | 0.759 | 0.12 | 0.58 | 0.599 | 0.567 | 0.413 | 0.316 | 0.768 | 0.839 | 0.816 | 0.711 | 0.928 | 1.12 |
| NCI-H358 |  |  |  |  |  |  |  |  | 0.208 | 0.24 | 0.181 | 0.0811 | 0.0784 | 0.392 | 0.447 | 0.445 | 0.382 | 0.483 |  |
| LK-2 | 0.696 | 0.876 | 0.951 | 0.845 | 0.907 | 0.879 | 0.209 | 0.175 | 0.276 | 0.369 | 0.193 | 0.119 | 0.108 | 0.953 | 0.852 | 0.819 | 0.867 |  | 0.887 |
